Where two headings read alike, the source gives them in different places.
Columns and labels:
[1] = Equilibrium dialysis, fraction unbound in brain homogenate; assay type: in vitro ADME, human; conditions: pH 7.4; human brain homogenate spiked at 20 and 200 nM; 16 h equilibrium dialysis; read-out: Fraction unbound (fu), Brain
Procedure: (§1) Equilibrium dialysis was employed to measure the fraction unbound of analytes in plasma, brain, and brain tumor tissue homogenates using 96-well DispoEquilibrium Dialyzer plates with a 10 kDa cut-off regenerated cellulose membrane. Dialysis was performed using 180 μL of human plasma or tissue homogenate against an equal volume of PBS (pH 7.4) in a dual-plate rotator (Harvard Apparatus, Holliston, MA, USA). Equilibrium time was initially optimized by analyzing samples after 2, 4, 6, 8, 16, and 24 h of dialysis at concentrations of 20 and 200 nM in human plasma and brain homogenate. The dialysates were collected and processed as described in Sections 2.3.2 and 2.3.3. The recovery of analytes was calculated as the ratio of analyte concentration after dialysis (sum of concentrations found in PBS and matrix fractions) to the total concentration to ensure the reliability and reproducibility of the assay. The experiments were repeated at least three times, and each sample in triplicate and average fraction unbound values were determined.
(§2) The fraction unbound in plasma (fu, plasma) and tissue homogenate (fu, hom) was evaluated as the analyte concentration ratio of post-dialysis PBS (cu) to post-dialysis plasma (cp, Eq. (1)) or homogenate (chom, Eq. (2)).(1) fu,plasma =cu/cp (2) fu,hom =cu/chom
(§3) The fraction unbound in the actual tissue (fu, tissue) was obtained by incorporating the unbound fraction in the tissue homogenate (fu, hom) and the dilution factor (Df) into Eq. (3).(3) fu,tissue = fu,hom/[Df - (Df - 1)fu,hom]

[2] = cited from earlier work
[3] = mouse; cited from earlier work
[4] = rat; cited from earlier work
[5] = Equilibrium dialysis, fraction unbound in plasma; assay type: in vitro ADME, human; conditions: pH 7.4, 16 h equilibrium dialysis
Procedure: as §1, §2
(§4) Unbound drug levels in the actual plasma and brain tumor tissue were measured using dialysis for 16 h to reach equilibrium. The mean of fraction unbound values determined in five patient samples was calculated.

[6] = cited from earlier work; remark: listed apart in the source
[7] = Equilibrium dialysis, fraction unbound in patient brain tumor tissue; assay type: in vitro ADME; conditions: human, five patients, 16 h equilibrium dialysis
Procedure: as §1, §2, §3, §4
The validated bioanalytical method was employed to investigate analytes pharmacokinetics in the plasma, brain tumor, and CSF in GBM patients (ClinicalTrials.gov identifier: NCT04391595). The protocol was reviewed and approved by the Institutional Review Board of the Barrow Neurological Institute, St. Joseph's Hospital and Medical Center (Phoenix, AZ, USA). All patients enrolled in the trial provided written informed consent. […] Blood, CSF, and GBM tissue (including gadolinium-contrast enhancing and non-enhancing regions) samples were obtained intra-operatively from each patient on the […] on the planned operation day. Blood was centrifuged at 4 °C and 3,000 r/min for 10 min; plasma was subsequently collected. Brain tumors were resected 7–9 h after the last dose was administered. Once resected, the tissue samples were rinsed with PBS, paper dried, and freshly frozen in liquid nitrogen. The samples were then stored at −80 °C in a freezer for later analysis.

[8] = design: method as in investigational brochures; conditions: ref investigational brochures; cited from earlier work
[9] = Analyte stability in brain homogenate; assay type: physicochemical, human; conditions: for Freeze-thaw stability, Accuracy / Freeze-thaw stability, Difference: 3 cycles; for Freeze-thaw stability, Difference / Benchtop stability, Difference / Processed sample stability, Difference / Autosampler stability (5 °C), Difference / Long-term stability (−20 °C), Difference: vs freshly processed QC; for Benchtop stability, Accuracy / Benchtop stability, Difference: 6 h; for Processed sample stability, Accuracy / Processed sample stability, Difference: 22 h; for Autosampler stability (5 °C), Accuracy / Autosampler stability (5 °C), Difference: 96 h; for Long-term stability (−20 °C), Difference: 39 days
Procedure: The stability of the analytes was studied under various storage and processing conditions. […] Short- and long-term stability studies of all analytes were conducted in human blank plasma and brain homogenate under several storage conditions. Analyte stability in biological matrices was analyzed using freshly prepared calibration standards and QC samples. The percentage difference between the stability and freshly processed QC was also assessed. Re-injection reproducibility was evaluated within the sample stability period in the autosampler. Analytes were considered stable if the accuracy at each level was ±15.0% of the nominal value. Additionally, the difference from corresponding comparison QC samples must be within ±15.0%.

In the case of `CCN1CCN(Cc2ccc(Nc3ncc(F)c(-c4cc(F)c5nc(C)n(C(C)C)c5c4)n3)nc2)CC1` [Abemaciclib], the fraction unbound at 16 h [1] is given as 0.013, the “fu, plasma (previously published)” value [2] is given as 0.027 and the “fu, brain” value [3] is given as 0.0079. For the same compound, the “fu, brain” value [4] was 0.0043, the fraction unbound at 16 h ([5]; human, plasma of five GBM patients, read-out: Fraction unbound (fu), Plasma (patients)) was 0.026 and the fraction unbound at 16 h ([5]; pooled human plasma spiked at 20 and 200 nM, read-out: Fraction unbound (fu), Plasma (pooled)) was 0.026. For the same compound, the “Distribution (LogD, pH7.4), experimentally measured (value in parenthesis)” value ([6]; pH 7.4) was 2.70, the “Lipophilicity, experimentally measured (value in parenthesis)” value ([6]; ref [12]) was 3.36 and the fraction unbound at 16 h ([7]; pH 7.4, gadolinium contrast enhancing GBM region, read-out: Fraction unbound (fu), GBM (E)) was 0.014. For the same compound, the fraction unbound at 16 h ([7]; pH 7.4, gadolinium contrast non-enhancing GBM region, read-out: Fraction unbound (fu), GBM (NE)) was 0.011, the “pKa (strongest basic)” value [8] was 7.95 and the “Freeze-thaw stability, Accuracy” value ([9]; HQC 400.0 nM) was 106.8%. The “Freeze-thaw stability, Difference” value ([9]; HQC 400.0 nM) was −3.2%, the “Freeze-thaw stability, Accuracy” value ([9]; LQC 0.6 nM) was 104.4% and the “Freeze-thaw stability, Difference” value ([9]; LQC 0.6 nM) was −5.7%. The “Benchtop stability, Accuracy” value ([9]; HQC 400.0 nM) was 97.3%, the “Benchtop stability, Difference” value ([9]; HQC 400.0 nM) was −3.7% and the “Benchtop stability, Accuracy” value ([9]; LQC 0.6 nM) was 108.3%. For the same compound, the “Benchtop stability, Difference” value ([9]; LQC 0.6 nM) was 6.7%, the “Processed sample stability, Accuracy” value ([9]; HQC 400.0 nM) was 99.6% and the “Processed sample stability, Difference” value ([9]; HQC 400.0 nM) was −1.4%. For the same compound, the “Processed sample stability, Accuracy” value ([9]; LQC 0.6 nM) was 104.5%, the “Processed sample stability, Difference” value ([9]; LQC 0.6 nM) was 3.0% and the “Autosampler stability (5 °C), Accuracy” value ([9]; HQC 400.0 nM) was 102.8%. For the same compound, the “Autosampler stability (5 °C), Difference” value ([9]; HQC 400.0 nM) was 3.3%, the “Autosampler stability (5 °C), Accuracy” value ([9]; LQC 0.6 nM) was 108.3% and the “Autosampler stability (5 °C), Difference” value ([9]; LQC 0.6 nM) was 13.8%. For the same compound, the “Long-term stability (−20 °C), Difference” value ([9]; HQC 400.0 nM) was −1.5% and the “Long-term stability (−20 °C), Difference” value ([9]; LQC 0.6 nM) was −6.9%.
